Among the test systems are CAKI-1; A498; MOLT-4; HCT-15; SF-295; MCF7; SK-MEL-28; SR; U-251; LOX IMVI; SK-MEL-2; UO-31; OVCAR-8; UACC-62; CCRF-CEM; SNB-19; RPMI-8226; NCI-H226; SK-MEL-5; HOP-92.
Holding throughout (experiment): NCI anticancer screen, dose series, 48 h

Each structure is given as a SMILES string.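 Compound exposure: 48 hours, 5 concentrations, 96-well plates. Here, GI50 denotes the concentration required for 50% inhibition of growth.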 Active and inactive are the calls of the source. Cut-off read from the data, not from the text of the source: active = GI50 up to about 1.1 µM and inactive = higher.

For `Cc1ccc(C=C(C(=O)O)C(=O)O)o1`, the GI50 in the test with CAKI-1 is > 100 µM (inactive); in the test with A498, > 100 µM (inactive); in the test on MOLT-4, > 100 µM (inactive); with HCT-15, greater than 100 µM; in the test with SF-295 it was > 100 µM (inactive); in the test with MCF7, > 100 µM (inactive). Further, the GI50 in the test on SK-MEL-28, in the test with SR, with U-251, in the test with LOX IMVI, with SK-MEL-2 and with UO-31 was > 100 µM (inactive) in each case. Moreover, the GI50 in the test with OVCAR-8, with UACC-62, in the test with CCRF-CEM, in the test on SNB-19, in the test with RPMI-8226 and in the test with NCI-H226 was > 100 µM (inactive) throughout. Further, the GI50 in the test on SK-MEL-5 is > 100 µM (inactive).
As for `COc1ccc2c(c1)c1c(n2CCN2CCCCC2)-c2cccc(OC)c2CC1`, the GI50 is 16.4 µM (inactive) in the test with CAKI-1; 20.1 µM (inactive) in the test on A498; 16.4 µM (inactive) in the test with MOLT-4; 8.99 µM in the test on HCT-15; > 10 µM (inactive) in the test on HOP-92; 30.5 µM (inactive) in the test with SF-295. In addition, the GI50 was 15.5 µM (inactive) in the test with MCF7; 15.4 µM (inactive) with SK-MEL-28; 4.9 µM (inactive) in the test with SR; 13.1 µM (inactive) in the test with U-251; 16.1 µM (inactive) in the test on LOX IMVI; 17.4 µM (inactive) in the test with SK-MEL-2. The GI50 in the test with UO-31 was 10.4 µM (inactive); with OVCAR-8, 16.9 µM (inactive); with UACC-62, 14.2 µM (inactive); in the test on CCRF-CEM, 4.27 µM (inactive); in the test on SNB-19, 13.4 µM (inactive); in the test on RPMI-8226, 11.5 µM (inactive). The GI50 in the test on NCI-H226 is 10 µM (inactive); in the test with SK-MEL-5, 18.2 µM (inactive).
Turning to `C=C1C(=O)O[C@@H]2/C=C(\C)CC/C=C(\C)CC[C@@]12O`, the GI50 in the test on CAKI-1 was 1.35 µM (inactive); with A498, 9.12 µM (inactive); in the test with MOLT-4 it was 1.41 µM (inactive); in the test with HCT-15, 2.82 µM; with HOP-92, 1.78 µM (inactive); in the test with SF-295, 10.9 µM (inactive). Besides, the GI50 is 2.17 µM (inactive) in the test with MCF7; 3.99 µM (inactive) in the test with SK-MEL-28; 2.42 µM (inactive) with SR; 7.36 µM (inactive) with U-251; 1.9 µM (inactive) with LOX IMVI; 9.38 µM (inactive) with SK-MEL-2. Also, the GI50 in the test with UO-31 was 1.48 µM (inactive); in the test with OVCAR-8, 1.91 µM (inactive); with UACC-62, 9.35 µM (inactive); with CCRF-CEM it was 0.149 µM (active); in the test with SNB-19, 5.43 µM (inactive); in the test on RPMI-8226 it was 0.948 µM (active). In addition, the GI50 in the test on NCI-H226 was 13.8 µM (inactive); in the test on SK-MEL-5, 4.59 µM (inactive).
`C[N+](C)(CCO)CCN1c2ccccc2Sc2ccccc21`: the GI50 is > 10 µM (inactive) with CAKI-1; > 10 µM (inactive) with A498; > 10 µM (inactive) in the test on MOLT-4; greater than 10 µM in the test with HCT-15; > 10 µM (inactive) in the test with SF-295; > 10 µM (inactive) with MCF7. Further, the GI50 with SK-MEL-28 was > 10 µM (inactive); with SR it was > 10 µM (inactive); in the test on U-251, > 10 µM (inactive); with LOX IMVI, > 10 µM (inactive); in the test with SK-MEL-2, > 10 µM (inactive); in the test with UO-31, 3.52 µM (inactive). For the same compound, the GI50 in the test with OVCAR-8, in the test with UACC-62, in the test with CCRF-CEM, in the test with SNB-19, with RPMI-8226 and with NCI-H226 was > 10 µM (inactive) in each case. Further, the GI50 in the test on SK-MEL-5 was > 10 µM (inactive).
Take `Nc1nc(=O)[nH]cc1F` [FLUCYTOSINE]: the GI50 in the test on CAKI-1 was > 100 µM (inactive); in the test on A498, > 100 µM (inactive); in the test on MOLT-4 it was > 100 µM (inactive); with HCT-15, greater than 100 µM; with HOP-92, > 100 µM (inactive); with SF-295, > 100 µM (inactive). The GI50 was > 100 µM (inactive) with MCF7; > 100 µM (inactive) in the test on SK-MEL-28; > 100 µM (inactive) in the test on SR; 32.7 µM (inactive) in the test on U-251; > 100 µM (inactive) in the test with LOX IMVI; > 100 µM (inactive) with SK-MEL-2. The GI50 in the test with UO-31, in the test on OVCAR-8, in the test with UACC-62, in the test on SNB-19, with RPMI-8226 and in the test on NCI-H226 was > 100 µM (inactive) in each case. Besides, in the test with SK-MEL-5, the GI50 was > 100 µM (inactive).
As to `CSC1=C(SC)C(=O)c2cn(C)c(=O)cc2C1=O`, the GI50 with A498 was 15.1 µM (inactive); with MOLT-4, 1.08 µM (active); in the test with HCT-15 it was 2.14 µM; with HOP-92 it was 0.904 µM (active); in the test with SF-295, 13 µM (inactive); with MCF7 it was 2.05 µM (inactive). Moreover, the GI50 in the test with SK-MEL-28 was 2.82 µM (inactive); in the test with SR, < 0.0332 µM (active); with U-251 it was 10.2 µM (inactive); in the test on LOX IMVI, 1.78 µM (inactive); in the test with SK-MEL-2 it was 5.06 µM (inactive); in the test on UO-31, 1.75 µM (inactive). The GI50 with OVCAR-8 was > 44.1 µM (inactive); in the test with UACC-62 it was 2.7 µM (inactive); with CCRF-CEM, 0.245 µM (active); in the test on SNB-19, 17.1 µM (inactive); in the test with RPMI-8226 it was 2.4 µM (inactive); in the test on NCI-H226, 19.9 µM (inactive). Moreover, the GI50 with SK-MEL-5 is 1.75 µM (inactive).
Regarding `O=C(O)c1cccc(OCCO)c1`, the GI50 in the test on CAKI-1 was > 100 µM (inactive); in the test on A498, > 100 µM (inactive); in the test with MOLT-4, > 100 µM (inactive); in the test with HCT-15, greater than 100 µM; with HOP-92 it was > 100 µM (inactive); in the test on SF-295, > 100 µM (inactive). For the same compound, the GI50 in the test on MCF7, in the test with SK-MEL-28, in the test with SR, with U-251, with LOX IMVI and in the test with SK-MEL-2 was > 100 µM (inactive) in each case. Further, the GI50 in the test with UO-31, in the test on OVCAR-8, in the test with UACC-62, with SNB-19, with RPMI-8226 and with NCI-H226 was > 100 µM (inactive) each time. Also, the GI50 with SK-MEL-5 is > 100 µM (inactive).

The record behind these values is ChEMBL document CHEMBL1201862, “PubChem BioAssay data set” (2004).
